Data taken from patent US20080318943A1, “Compounds and Uses Thereof - 848” (ASTRAZENECA AB, priority 2007, published 2008).

Key:
[1] = molecular target: T1, GABAA2 receptors (α2, β3, γ2 receptor subunits transfected into Sf9 cells) (Homo sapiens, UniProt P18507+P47869); assay: GABAA2 Binding Method ([3H]-Flunitrazepam displacement); conditions: [3H]-Flunitrazepam ~2 nM, α2β3γ2 Sf9 membranes, 1 hr at 4° C.
T1 construct: host or cells: Sf9 cells (membranes)
Method in brief: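 Membranes from Sf9 cells expressing α2β3γ2 GABAA receptors incubated with ~2 nM (final) [3H]-flunitrazepam and test compound 1 h at 4 °C, then filtered on GF/B plates with cold-buffer washes. Flumazenil-defined controls; percent of control, IC50 and Ki calculated.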

[2] = molecular target: T2, GABAA receptor α1β2γ2 (Homo sapiens, UniProt P14867+P18507); assay: Two-electrode voltage-clamp potentiation of GABA EC10 current in Xenopus oocytes, GABAA1; assay type: cell-based; conditions: percentage potentiation of GABA EC10 current divided by that of diazepam
T2 construct: expressed in transfected cells; host or cells: Xenopus laevis oocytes injected with cRNA
Method in brief: (§1)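 Human GABAA receptors expressed in Xenopus oocytes by cRNA injection (α:β:γ molar ratio ~1:1:10 for α1β2γ2, 1:1:1 for α2β3γ2), recorded 2-10 days later by two-electrode voltage clamp at −60 mV in ND-96, pH 7.5. Modulator preapplied 30 s before GABA at per-oocyte EC10. Peak-current percent potentiation over GABA alone, normalised to diazepam.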

[3] = molecular target: T3, GABAA receptor α2β3γ2 (Homo sapiens, UniProt P18507+P47869); assay: Two-electrode voltage-clamp potentiation of GABA EC10 current in Xenopus oocytes, GABAA2; assay type: cell-based; conditions: percentage potentiation of GABA EC10 current divided by that of diazepam
T3 construct: expressed in transfected cells; host or cells: Xenopus laevis oocytes injected with cRNA
Method in brief: as §1

[4] = listed as 9-Amino-2-cyclobutyl-5-((P)-2-fluoro-6-methoxyphenyl)-2,3-dihydro-pyrrolo[3,4-b]

T2 sequence (P14867 28-456): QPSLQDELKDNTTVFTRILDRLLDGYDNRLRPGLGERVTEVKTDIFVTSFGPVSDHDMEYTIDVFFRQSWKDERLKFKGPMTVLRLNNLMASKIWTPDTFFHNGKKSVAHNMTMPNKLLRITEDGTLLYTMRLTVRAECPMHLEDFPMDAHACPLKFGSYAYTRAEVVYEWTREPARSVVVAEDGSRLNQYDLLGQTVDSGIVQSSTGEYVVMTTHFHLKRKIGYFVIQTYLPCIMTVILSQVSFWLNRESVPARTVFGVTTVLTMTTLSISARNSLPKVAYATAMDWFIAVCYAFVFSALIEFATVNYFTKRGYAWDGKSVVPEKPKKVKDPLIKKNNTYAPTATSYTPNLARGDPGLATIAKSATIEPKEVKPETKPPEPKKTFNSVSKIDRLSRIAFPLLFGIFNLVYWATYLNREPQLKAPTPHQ
T2 sequence (P47870 25-512 partner limits assumed): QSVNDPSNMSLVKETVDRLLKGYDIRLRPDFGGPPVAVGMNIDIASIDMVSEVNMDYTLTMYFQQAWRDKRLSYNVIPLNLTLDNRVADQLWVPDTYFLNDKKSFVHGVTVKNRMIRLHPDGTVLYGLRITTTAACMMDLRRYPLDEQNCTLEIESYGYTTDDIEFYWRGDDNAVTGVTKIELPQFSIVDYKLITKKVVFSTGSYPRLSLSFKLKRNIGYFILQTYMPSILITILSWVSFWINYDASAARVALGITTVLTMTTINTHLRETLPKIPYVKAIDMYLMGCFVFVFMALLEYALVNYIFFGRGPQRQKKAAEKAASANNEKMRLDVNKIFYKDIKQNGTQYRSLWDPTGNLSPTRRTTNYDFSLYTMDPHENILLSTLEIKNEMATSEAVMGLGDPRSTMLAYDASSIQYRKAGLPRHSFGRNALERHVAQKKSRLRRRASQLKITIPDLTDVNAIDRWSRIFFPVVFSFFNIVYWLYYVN
T2 sequence (P18507 40-475): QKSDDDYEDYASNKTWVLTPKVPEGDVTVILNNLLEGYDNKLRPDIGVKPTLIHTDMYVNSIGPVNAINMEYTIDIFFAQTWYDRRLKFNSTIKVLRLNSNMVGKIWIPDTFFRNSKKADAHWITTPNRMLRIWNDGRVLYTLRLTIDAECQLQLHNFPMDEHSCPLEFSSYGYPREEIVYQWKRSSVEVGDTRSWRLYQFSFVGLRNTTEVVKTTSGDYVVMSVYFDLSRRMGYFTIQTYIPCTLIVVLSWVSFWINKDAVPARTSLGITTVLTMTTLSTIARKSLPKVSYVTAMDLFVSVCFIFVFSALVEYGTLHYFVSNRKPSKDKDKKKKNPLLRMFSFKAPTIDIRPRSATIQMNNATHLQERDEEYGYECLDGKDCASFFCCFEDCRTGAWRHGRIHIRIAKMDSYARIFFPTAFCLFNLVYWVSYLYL
T3 sequence (P47869 29-451): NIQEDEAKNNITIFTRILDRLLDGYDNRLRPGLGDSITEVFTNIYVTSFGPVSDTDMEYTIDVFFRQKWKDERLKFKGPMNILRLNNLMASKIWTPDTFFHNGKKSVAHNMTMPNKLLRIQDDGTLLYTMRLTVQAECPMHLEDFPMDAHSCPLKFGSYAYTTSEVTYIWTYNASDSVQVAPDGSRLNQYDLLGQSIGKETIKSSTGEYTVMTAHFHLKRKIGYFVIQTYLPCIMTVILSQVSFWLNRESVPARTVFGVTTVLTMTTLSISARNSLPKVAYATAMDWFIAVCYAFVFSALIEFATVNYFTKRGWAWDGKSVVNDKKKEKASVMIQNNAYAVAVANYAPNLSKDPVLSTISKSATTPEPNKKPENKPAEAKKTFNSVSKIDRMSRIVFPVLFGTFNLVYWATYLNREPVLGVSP
T3 sequence (P28472 26-473 partner): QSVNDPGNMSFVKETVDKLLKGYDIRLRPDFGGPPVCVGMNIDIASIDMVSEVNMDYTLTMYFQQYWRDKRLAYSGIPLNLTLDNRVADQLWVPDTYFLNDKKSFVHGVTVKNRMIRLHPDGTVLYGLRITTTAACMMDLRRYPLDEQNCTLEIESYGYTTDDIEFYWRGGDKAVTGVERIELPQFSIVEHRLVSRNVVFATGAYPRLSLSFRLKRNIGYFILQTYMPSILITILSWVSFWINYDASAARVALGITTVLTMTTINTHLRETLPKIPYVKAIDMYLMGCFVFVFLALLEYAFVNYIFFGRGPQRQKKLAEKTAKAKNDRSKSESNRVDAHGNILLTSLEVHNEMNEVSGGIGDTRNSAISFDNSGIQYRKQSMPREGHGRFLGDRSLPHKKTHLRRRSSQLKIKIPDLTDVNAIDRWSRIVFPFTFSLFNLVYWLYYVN
T3 sequence (P18507 40-475): as the sequence (P18507 40-475) above
T1 sequence (P47869 29-451): as the sequence (P47869 29-451) above
T1 sequence (P28472 26-473 partner): as the sequence (P28472 26-473 partner) above
T1 sequence (P18507 40-475): as the sequence (P18507 40-475) above

| Compound | Ki [1] [nM] | Relative Potentiation for GABAA1 [2] | Relative Potentiation for GABAA2 [3] | Relative Potentiation for GABAA1 [2, 4] | Relative Potentiation for GABAA2 [3, 4] |
| --- | --- | --- | --- | --- | --- |
| CCN1Cc2nc3c(-c4cnccc4C)c(F)ccc3c(N)c2C1=O [9-Amino-2-ethyl-6-fluoro-5-(4-methylpyridin-3-yl)-2,3-dihydropyrrolo[3,4-b]quinolin-1-one] | 2.01 | −0.0025 | 0.094 | – | – |
| N#Cc1ccc(-c2cccc3c(N)c4c(nc23)CN(C2CCC2)C4=O)nc1 [6-(9-Amino-2-cyclobutyl-1-oxo-2,3-dihydro-1H-pyrrolo[3,4-b]quinolin-5-yl)-nicotinonitrile] | 2.39 | 0.005 | 0.15 | – | – |
| COc1ccc(OC)c(-c2cccc3c(N)c4c(nc23)CN(Cc2ccc(OC)c(OC)c2)C4=O)c1 [Example 11, 9-Amino-2-(3,4-dimethoxybenzyl)-5-(2,5-dimethoxyphenyl)-2,3-dihydropyrrolo[3,4-b]quinolin-1-one] | 11 | 0.15 | 0.19 | – | – |
| COc1ncccc1-c1c(F)ccc2c(N)c3c(nc12)CN([C@H]1CCOC1)C3=O [Example 170, 9-Amino-6-fluoro-5-(2-methoxypyridin-3-yl)-2-(S)-tetrahydrofuran-3-yl-2,3-dihydropyrrolo[3,4-b]quinolin-1-one] | 5.68 | −0.14 | 0.19 | – | – |
| COc1cccc(F)c1-c1cccc2c(N)c3c(nc12)CN(C1CCC1)C3=O (single isomer, unassigned) [Example 129, 9-Amino-2-cyclobutyl-5-((P)-2-fluoro-6-methoxyphenyl)-2,3-dihydropyrrolo[3,4-b]quinolin-1-one] | 0.289 | – | – | −0.11 | 0.23 |
| CCCN1Cc2nc3c(-c4cc(F)ccc4F)cccc3c(N)c2C1=O [9-amino-5-(2,5-difluorophenyl)-2-propyl-2,3-dihydro-1H-pyrrolo[3,4-b]quinolin-1-one] | 34.8 | 0.21 | 0.33 | – | – |
| COc1ccc(F)cc1-c1c(F)ccc2c(N)c3c(nc12)CN(C1CC1)C3=O [Example 61, 9-Amino-2-cyclopropyl-6-fluoro-5-(5-fluoro-2-methoxyphenyl)-2,3-dihydropyrrolo[3,4-b]quinolin-1-one] | 7.4 | 0.08 | 0.23 | – | – |
| Nc1c2c(nc3c(-c4cccnc4F)cccc13)CN(C1CCC1)C2=O [9-Amino-2-cyclobutyl-5-(2-fluoropyridin-3-yl)-2,3-dihydropyrrolo[3,4-b]quinolin-1-one] | 2.56 | −0.002 | 0.24 | – | – |
| CCCN1Cc2nc3c(-c4ccc(C)nc4C)cccc3c(N)c2C1=O [9-amino-5-(2,6-dimethylpyridin-3-yl)-2-propyl-2,3-dihydro-1H-pyrrolo[3,4-b]quinolin-1-one] | 2.63 | 0.45 | 0.41 | – | – |
| COc1cccc(F)c1-c1cccc2c(N)c3c(nc12)CN(C(C)C)C3=O [9-Amino-5-(2-fluoro-6-methoxyphenyl)-2-isopropyl-2,3-dihydropyrrolo[3,4-b]quinolin-1-one] | 26.8 | −0.16 | 0.15 | – | – |
| COc1ccc(CN2Cc3nc4c(-c5c(F)cccc5OC)cccc4c(N)c3C2=O)cc1OC [Example 65, 9-Amino-2-(3,4-dimethoxybenzyl)-5-(2-fluoro-6-methoxyphenyl)-2,3-dihydropyrrolo[3,4-b]quinolin-1-one] | 2.68 | 0.092 | 0.2 | – | – |
| N#Cc1ccccc1-c1cccc2c(N)c3c(nc12)CN(C1CC1)C3=O [2-(9-Amino-2-cyclopropyl-1-oxo-2,3-dihydro-1H-pyrrolo[3,4-b]quinolin-5-yl)-benzonitrile] | 16.3 | −0.064 | 0.087 | – | – |
| CCCN1Cc2nc3c(-c4cc(C)ccc4OC)cccc3c(N)c2C1=O [9-amino-5-(2-methoxy-5-methylphenyl)-2-propyl-2,3-dihydro-1H-pyrrolo[3,4-b]quinolin-1-one] | 47.2 | 0.17 | 0.37 | – | – |
| Nc1c2c(nc3c(-c4c(F)cccc4F)cccc13)CN(C1CC1)C2=O [Example 114, 9-Amino-2-cyclopropyl-5-(2,6-difluorophenyl)-2,3-dihydropyrrolo[3,4-b]quinolin-1-one] | 3.5 | −0.058 | 0.13 | – | – |
| CCN1Cc2nc3c(-c4ccccc4C#N)cccc3c(N)c2C1=O [Example 25, 2-(9-Amino-2-ethyl-1-oxo-2,3-dihydro-1H-pyrrolo[3,4-b]quinolin-5-yl)-benzonitrile] | 14.1 | −0.11 | 0.17 | – | – |
| COc1ccc(CN2Cc3nc4c(-c5cc(F)ccc5F)cccc4c(N)c3C2=O)cc1 [Example 2] | 44.3 | 0.12 | 0.13 | – | – |
| CCN1Cc2nc3c(-c4ccc(F)cc4F)c(F)ccc3c(N)c2C1=O [9-amino-5-(2,4-difluorophenyl)-2-ethyl-6-fluoro-2,3-dihydro-1H-pyrrolo[3,4-b]quinolin-1-one] | 3.85 | −0.038 | 0.064 | – | – |
| COc1ccc(-c2cccc3c(N)c4c(nc23)CN(C2CCC2)C4=O)c(OC)c1 [Example 53, 9-Amino-2-cyclobutyl-5-(2,4-dimethoxyphenyl)-2,3-dihydropyrrolo[3,4-b]quinolin-1-one] | 2.13 | 0.1 | 0.24 | – | – |
| Nc1c2c(nc3c(-c4ncccc4F)cccc13)CN(C1CCC1)C2=O [9-Amino-2-cyclobutyl-5-(3-fluoropyridin-2-yl)-2,3-dihydropyrrolo[3,4-b]quinolin-1-one] | 4.69 | 0.017 | 0.19 | – | – |
| COc1ccc(OC)c(CN2Cc3nc4c(-c5cnccc5OC)cccc4c(N)c3C2=O)c1 [Example 39, 9-Amino-2-(2,5-dimethoxybenzyl)-5-(4-methoxypyridin-3-yl)-2,3-dihydropyrrolo[3,4-b]quinolin-1-one] | 5.11 | 0.18 | 0.26 | – | – |
| COc1ccc(Cl)c(-c2cccc3c(N)c4c(nc23)CN(C2CC2)C4=O)c1 [9-Amino-5-(2-chloro-5-methoxyphenyl)-2-cyclopropyl-2,3-dihydropyrrolo[3,4-b]quinolin-1-one] | 33.2 | 0.068 | 0.14 | – | – |
| COc1ccc(Cl)cc1-c1cccc2c(N)c3c(nc12)CN(C1CCC1)C3=O [Example 49, 9-Amino-5-(5-chloro-2-methoxyphenyl)-2-cyclobutyl-2,3-dihydropyrrolo[3,4-b]quinolin-1-one] | 2.53 | 0.12 | 0.58 | – | – |
| COc1ccc(CN2Cc3nc4c(-c5cnccc5OC)cccc4c(N)c3C2=O)cc1OC [9-amino-2-(3,4-dimethoxybenzyl)-5-(4-methoxypyridin-3-yl)-2,3-dihydro-1H-pyrrolo[3,4-b]quinolin-1-one] | 1.5 | 0.23 | 0.37 | – | – |
| COc1ccc(CN2Cc3nc4c(-c5cnccc5OC)cccc4c(N)c3C2=O)cc1 [9-amino-2-(4-methoxybenzyl)-5-(4-methoxypyridin-3-yl)-2,3-dihydro-1H-pyrrolo[3,4-b]quinolin-1-one] | 3.35 | 0.32 | 0.52 | – | – |
| COc1cnccc1-c1c(F)ccc2c(N)c3c(nc12)CN(C1CCC1)C3=O [9-Amino-2-cyclobutyl-6-fluoro-5-(3-methoxypyridin-4-yl)-2,3-dihydropyrrolo[3,4-b]quinolin-1-one] | 0.185 | 0.02 | 0.27 | – | – |
| COc1ccc(CN2Cc3nc4c(-c5c(F)cccc5OC)cccc4c(N)c3C2=O)cc1 [Example 1, 9-Amino-5-(2-fluoro-6-methoxyphenyl)-2-(4-methoxybenzyl)-2,3-dihydropyrrolo[3,4-b]quinolin-1-one] | 9.8 | −0.034 | 0.2 | – | – |
| CCCN1Cc2nc3c(-c4cnccc4C)cccc3c(N)c2C1=O [9-amino-5-(4-methylpyridin-3-yl)-2-propyl-2,3-dihydro-1H-pyrrolo[3,4-b]quinolin-1-one] | 55.7 | 0.36 | 0.34 | – | – |
| Cc1ccc(-c2cccc3c(N)c4c(nc23)CN(C2CC2)C4=O)cn1 [9-Amino-2-cyclopropyl-5-(6-methyl-pyridin-3-yl)-2,3-dihydropyrrolo[3,4-b]quinolin-1-one] | 29.9 | −0.11 | 0.1 | – | – |
